PMC10524218 (Clinical cancer research : an official journal of the …, 2023)

Legend:
[1] = human, in vivo
[2] = Pharmacokinetics in patient blood samples, noncompartmental analysis; details: versus patients without; P=0.016; Fig. S3
SCLC = details: monotherapy, SCLC ref 45; cited from earlier work
[3] = single-agent sacituzumab govitecan ref 35; cited from earlier work
[4] = test system: γH2AX foci in hair follicles; experiment: γH2AX foci formation in hair follicles as marker of DNA double-strand breaks; format: in vivo, human; details: hair follicles from eight patients

CCc1c2c(nc3ccc(O[C@@H]4O[C@H](C(=O)O)[C@@H](O)[C@H](O)[C@H]4O)cc13)-c1cc3c(c(=O)n1C2)COC(=O)[C@]3(O)CC [SN-38G]
SN-38G Cmax in patients experiencing fatigue [1]: higher

CCc1c2c(nc3ccc(O)cc13)-c1cc3c(c(=O)n1C2)COC(=O)[C@]3(O)CC [SN-38]
SN-38 AUC in patients experiencing lymphopenia [2]: higher

sacituzumab govitecan
Tumor responses (SCLC): led to tumor responses in SCLC | Grade ≥ 3 neutropenia, fraction of patients [3]: about one-third | γH2AX foci in hair follicles following sacituzumab govitecan [4]: substantial increase in the number and intensity of γH2AX foci
